Data on eleven compounds can be found in patent publication US4904658A, “Substituted-6H,8H-pyrimido-[1,2,3-cd]purine-8,10-(9H)-diones and substituted-6H,10H-pyrimido[1,2-cd]purin-10-ones” (American Cyanamid Company, priority 1988, dated 1990).

Assay [1] in a line: Passive Avoidance Anoxic Induced Amnesia Test in mice. The format is in vivo, Swiss-Webster mice. The note with it: vs saline control, 30% considered active. An excerpt: Another in vivo test associated with decreased neural function in mammals is the Passive Avoidance Anoxic Induced Amnesia Test. This test is used to determine the attenuation of anoxic induced amnesia in mice treated with drug, as compared to saline treated control animals with no drug.
A shock-motivated, single trial, step-through passive avoidance procedure is used. Groups of 25 Swiss-Webster, middle-aged mice (9 months of age) are placed singly in the front chamber of a 2-chamber box and are allowed to voluntarily cross into the rear chamber. As soon as the mouse enters the rear chamber, a door automatically traps the animal and a mild electric shock (0.4 mA for 4 seconds) is delivered to its feet. Following the foot shock, the mice are initially placed in an anoxic environment (0% oxygen) for 12 seconds, which quickly induces unconsciousness. They are then placed in an hypoxic environment (15% oxygen) for four minutes which prolongs the oxygen deprived state, maintaining unconsciousness. All testing is performed 24 hours later, and in all cases the mice appear fully recovered from the previous anoxic/hypoxic treatment. All test compounds are administered intraperitoneally at a dose of 10-200 mg/kg, 30 minutes prior to training and testing. Control animals are injected intraperitoneally only with saline at 0.01 cc/g of body weight.
The latency to enter the rear chamber is recorded for both training and testing. Presumably, the more the animal remembers being shocked, the greater it will inhibit going into the rear chamber and the higher will be its latency to re-enter. An improvement of 30% over saline control scores is considered active.

The nature of assay [2]: Hypoxic Survival Test in mice. In kind it is in vivo, Royal Hart mice. Conditions: survival after 5 minutes; for % Survivors: 30 min before hypoxia. As for the experimental part:
A useful in vivo test that measures how effectively central nervous system-acting drugs enhance survival in a hypoxic environment, presumably by improving the ratio of energy supply to demand is known as the Hypoxic Survival Test. […] Drugs are tested by intraperitoneally injecting groups of mice 30 minutes prior to placing them in a hypoxic mixture and measuring survival. The rationale of this test is that drugs which enhance survival under hypoxic conditions without concomitant, depression or sedative side effects, may do so by enhancing energy metabolism, or by preserving normal brain function under conditions of reduced energy metabolism. Given the dependence of the brain on a constant supply of energy, drugs which have this property may have many far-reaching therapeutic indications, including recovery from stroke and closed head injury, as well as reducing the deleterious effects of the aging central nervous system.
Groups of 20 Royal Hart mice (6 weeks of age) are injected intraperitoneally with test compound (1-200 mg/kg) 30 minutes prior to placing them in a hypoxic mixture (10% oxygen in 90% […]) and measuring survival after 5 minutes.
A separate group of 20 mice is injected intraperitoneally with saline solution (0.01 cc/g of body weight) and processed as described above.
Still another group of 20 mice is injected intraperitoneally with 0.125 mg/kg of physostigmine and processed as described above.

Assay [3] in a line: Reduction of mean arterial blood pressure in spontaneously hypertensive rats. The format is in vivo, spontaneously hypertensive rats of the Okamoto strain. Conditions: gavage, 100 mg/kg or less, two doses 24 h apart, measured at 28 hours; average mean arterial blood pressure of the rats 160 mm Hg. As for the experimental part:
Certain of the novel compounds of the present invention are active hypotensive agents at non-toxic doses when administered to mammals. These compounds were tested for hypotensive activity by the method of P. S. Chan and D. Poorvin, Clinical and Experimental Hypertension, 1 (6), 817-830 (1979). Male, 16 week old, spontaneously hypertensive rats of the Okamoto strain having an average mean arterial blood pressure of 160+1.5 mm of mercury are used in the test. One to 3 rats are used per test compound. A rat is dosed by gavage with a test compound, suspended in 2% pre-boiled starch at a concentration of 50 mg/ml, at a dose of 100 mg/kg of body weight or less, with 0.9% sodium chloride loading at a dose of 25 ml/kg of body weight. A second identical dose of the test compound, without sodium chloride loading is given 24 hours later. At 28 hours after the initial dose the mean arterial blood pressure is measured by the method of Chan and Poorvin vide supra. The procedure is repeated in a second and third rat when necessary.

For assay [4], the system named is brain-specific receptors of rats (3H-benzodiazepine binding). The experiment in a line: Inhibition of the binding of 3H-benzodiazepine to brain-specific receptors of rats. Conditions: rat cortex P2 fraction; 3H-diazepam 1.5 nM or 3H-flunitrazepam 1.0 nM; test concentration not given; 12% or more is active. Details: species or system rat (Wistar strain). The text has this:
A test utilized for the determination of anxiolytic activity is the measurement of the ability of test compounds to inhibit the binding of tritiated benzodiazepines to brain-specific receptors of warm-blooded animals. A modification of the method described by R. F. Squires, et al., Nature, 266, No. 21, pg 732 (Apr. 1977) and H. Mohler, et al., Science, 198, pg 849 (1977) was employed.
Male albino rats (Wistar strain, weighing 150-200 g each) were used. The test compounds were solubilized in either dimethylformamide, acetic acid, ethanol or hydrochloric acid.
Whole cortex of rats was homogenized gently in 20 volumes of ice-cold 0.32 M sucrose, centrifuged twice at 1000 g for 10 minutes and then recentrifuged at 30,000 g for 20 minutes to produce a crude P2 -synaptosomal fraction. The P2 -fraction was either: (1) resuspended in twice the original volume in hypotonic 50 mM Tris.HCl (pH 7.4), or (2) resuspended in one-half the original volume in hypotonic 10 mM Tris.HCl (pH 7.4) and frozen (-20° C.) until time of use. Frozen P2 preparations were thawed and resuspended in four times the original homogenizing volume at time of assay.
The binding assay consisted of 300 μl of the P2 -fraction suspension (0.2-0.4 mg protein), 100 μl of test drug and 100 μl of ^3 H-diazepam (1.5 nM, final concentration) or ^3 H-flunitrazepam (1.0 nM, final concentration) which was added to 1.5 ml of 50 mM Tris.HCl (pH 7.4). Non-specific binding controls and total binding controls received 100 μl of diazepam (3 μM final concentration) and 100 μl of deionized water, respectively, in place of the test compound. Incubation for 30 minutes proceeded in ice and was terminated by filtration, under vacuum, through glass fiber filters. […] After drying at 50°-60° C. for 30 minutes, 10 ml of diluent was added and the radioactivity determined in a scintillation counter.
Inhibition of binding was calculated by the difference between total binding and binding in the presence of test compound, divided by the total binding, X 100. […]

Regarding `O=c1[nH]c(=O)n2c3c1ncn3C(c1cccc(Cl)c1)=CC2` [4-(3-Chlorophenyl)-6H,8H-pyrimido[1,2,3-cd]purine-8,10(9H)-dione], the “% Improvement” value is 42% in assay [1] (25 mg/kg i.p.) and 43% in assay [1] (50 mg/kg i.p.).
Take `O=c1[nH]c(=O)n2c3c1ncn3C(c1cccc([N+](=O)[O-])c1)=CC2` [4-(3-Nitrophenyl)-6H,8H-pyrimido[1,2,3-cd]purine-8,10(9H)-dione]: the “% Survivors” value in assay [2] (200 mg/kg i.p.) was 47%.
As to `O=c1[nH]c(=O)n2c3c1ncn3C(c1cccnc1)=CC2` [4-(3-Pyridinyl)-6H,8H-pyrimido[1,2,3-cd]purine-8,10(9H)-dione], the “Mean arterial blood pressure” value in assay [3] stood at 127 mm Hg.
For the compound `Cc1ccc(C2=CCn3c(=O)[nH]c(=O)c4ncn2c43)cc1` [4-(4-Methylphenyl)-6H,8H-pyrimido[1,2,3-cd]purine-8,10(9H)-dione], in assay [3], the “Mean arterial blood pressure” value is on record as 127 mm Hg.
As for `O=c1[nH]c(=O)n2c3c1ncn3C(c1cccc(C(F)(F)F)c1)=CC2` [4-[3-(Trifluoromethyl)phenyl]-6H,8H-pyrimido[1,2,3-cd]purine-8,10(9H)-dione], the results for the “% Improvement” value in assay [1] (50 mg/kg i.p.) and in assay [1] (100 mg/kg i.p.) were 144% and 44%, respectively. Also, in assay [4], the “% Inhibition of the binding of 3H-benzodiazepine” value (from here on “% Inhibition”) amounted to 54%.
`O=c1[nH]c(=O)n2c3c1ncn3C(c1ccc(N3CCOCC3)cc1)=CC2` [4-[4-(4-Morpholinyl)phenyl]-6H,8H-pyrimido[1,2,3-cd]purine-8,10(9H)-dione]: the “% Survivors” value in assay [2] (100 mg/kg i.p.) came out at 55%. Also, the “% Improvement” value in assay [1] (25 mg/kg i.p.) worked out at 34%.
Take `CSc1nc(=O)c2ncn3c2n1CC=C3c1ccccc1` [8-(Methylthio)-4-phenyl-6H,10H-pyrimido[1,2-cd]-purin-10-one]: in assay [4], the “% Inhibition” value was 13%.
`O=c1c2ncn3c2n(c(=O)n1Cc1ccccc1)CC=C3c1cccc(C(F)(F)F)c1` [9-(Phenylmethyl)-4-[3-(trifluoromethyl)phenyl]-6H,8H-pyrimido[1,2,3-cd]purine-8,10(9H)-dione]: the “Mean arterial blood pressure” value in assay [3] came to 132 mm Hg.
With `CCn1c(=O)c2ncn3c2n(c1=O)CC=C3c1cccc(C(F)(F)F)c1` [9-Ethyl-4-[3-(trifluoromethyl)phenyl]-6H,8H-pyrimido[1,2,3-cd]purine-8,10(9H)-dione], the “% Inhibition” value in assay [4] stood at 17%.
In the case of `Cn1c(=O)c2ncn3c2n(c1=O)CC=C3c1cccc(C(F)(F)F)c1` [9-Methyl-4-[3-(trifluoromethyl)phenyl]-6H,8H-pyrimido[1,2,3-cd]purine-8,10(9H)-dione], the “% Improvement” value in assay [1] (10 mg/kg i.p.) came out at 66%; in assay [1] (25 mg/kg i.p.), 69%; in assay [1] (50 mg/kg i.p.) it was 56%; in assay [1] (100 mg/kg i.p.), 39%.
For the compound `CNC(=O)Oc1ccc2c(c1)[C@]1(C)CCN(C)[C@@H]1N2C` [physostigmine, reference compound], in assay [2] (10% oxygen, 0.125 mg/kg i.p., saline controls 5-20%), the “physostigmine treated mice surviving” value was 60-80%.
